Legend:
[1] = system: Mouse-derived myoblast line C2C12 cell; experiment: Cell differentiation promoting activity in myoblast (creatine kinase activity); format: cell-based; settings: 48 h, 1 μM compound, 2 days in differentiation medium, CK activity without compound = 100%, read-out: creatinine kinase activating action (%)
Description: • (1) Mouse-derived myoblast line C2C12 cell (Dainippon Pharmaceutical Co., Ltd.) was subcultured in a high glucose Eagle's modified Dulbecco's medium (GIBCO) containing 10% calf fetal bovine serum (GIBCO), 100 unit/mL penicillin and 100 μg/mL streptomycin (hereinafter to be referred to as a growth medium), plated at 5000 cells/cm^2 and cultured at 37° C., under 5% CO2. • (2) When the cells reached subconfluence, the medium was exchanged with a high glucose Eagle's modified Dulbecco's medium (GIBCO) containing 2% horse serum (GIBCO) and penicillin, streptomycin and a test compound (hereinafter to be referred to as a differentiation medium), and the cells were cultured for 2 days. To the control group was added DMSO solution instead of the test compound. • (3) The cells were washed with PBS, 0.5% NP-40 solution was added thereto, and the cells were lysed by freeze-thawing. The cell extract was centrifuged, and the creatine kinase activity in the supernatant was measured as an index of muscle differentiation. The creatine kinase activity was measured using CPKII Test Wako (Wako Pure Chemical Industries, Ltd.) according to the manual of the kit. The tests using the compounds of Example 7 to Example 14 were corrected based on the total protein amount measured using CA Protein Assay Kit (Thermo Scientific).
The numerical values in Table 3 show CK activity of the compound addition group with the CK activity without addition of the compound as 100%, and 1 μM of the compound was added for the measurement.

[2] = Anti-diabetes action in KKA^y mouse (glycohemoglobin); format: in vivo, female KKA^y mouse; settings: 2 weeks, variation from value before administration, n=6
Description: Female KKA^y mice (12-13 week-old, CLEA Japan, Inc.) were bred allowing free ingestion of both feed and water. The mice were acclimation bred with powder CE-2 (CLEA Japan, Inc.) from 2 weeks before administration of the test compound. The body weight, blood glycohemoglobin % (GHb %) value, plasma glucose, triglyceride and total cholesterol concentration were measured, and the mice were divided into 3 groups or 5 groups (6 mice/group) such that those measurement values are uniform at the start of the administration. The compound was administered by mixing (0.01-0.03%) in the feed for 2 weeks. GHb % was measured on the last day. GHb % was measured using Tosoh Corporation automatic glycohemoglobin analyzer (HLC-723GHbV Alc2.2). The numerical values in Table 11 show the variation from the value before administration to the measured value after administration in mean±standard deviation at n=6 (n is the number of mice).

[3] = system: differentiated C2C12 muscle cell; experiment: Sugar metabolism promoting activity in muscle cell (lactic acid production); format: cell-based, mouse; settings: C2C12 myotube, 1 μM compound, 2 days; lactic acid concentration without compound = 100%
Description: • (1) In the same manner as in Experimental Example 1, C2C12 cell was cultured in a growth medium. When the cells reached subconfluence, the medium was exchanged with a differentiation medium, and the cells were cultured for 3 to 4 days while exchanging the medium every 2 or 3 days until the cells differentiated to form a myotube. • (2) After confirmation of myotube formation under a microscope, the compound (1 μM) was added to a differentiation medium and cultured for 2 days. The cells were washed with Krebs-Ringer HEPES phosphate buffer (10 mM HEPES, pH 7.4, 131 mM NaCl, 4.7 mM KCl, 2.5 mM CaCl2-2H2O, 1.2 mM MgSO4-7H2O, 1.2 mM KH2PO4), the medium was exchanged with Krebs-Ringer HEPES phosphate buffer containing 5 mM glucose, 0.2% fatty acid-free bovine serum albumin, and the cells were cultured at 37° C. for 4 hr. • (3) The lactic acid concentration of the culture supernatant was measured using Detarminer LA kit (Kyowa Medex Co., Ltd.).
The numerical values in Table 4 show the lactic acid concentration of the compound addition group with the lactic acid concentration without addition of the compound as 100%.

NF-kB = NF-kB activation suppressive action in muscle cell (luciferase reporter, TNF-α induced); format: cell-based, mouse; settings: TNF-α 10 ng/mL, activity without TNF-α = 1, n=8
Description: • (1) C2C12 cells introduced with NF-kB reporter plasmid (C2C12/NF-kB-luc, Panomics) was plated at 20000 cells/cm^2, 100 μg/ml hygromycin was added thereto, and the cells were cultured in a growth medium in the same manner as in Example 1. • (2) The cells were cultured in a differentiation medium containing the compound of Example 1, Example 8, Example 9, Example 10 or Example 11 for 1 hr, TNF-α was added thereto such that the concentration is 10 ng/mL, and the cells were cultured for 4 hr. • (3) The luciferase activity in the medium was measured using a Stedy-Glo luciferase assay system (Promega). The NF-kB activity was evaluated by measuring the luciferase activity.
The data in Table 6 to Table 10 show mean±standard deviation at n=8 (n is the number of samples).

| Structure (SMILES) | activity at 1 µM [1] [%] | GHb change (%) ([2]; 0.03% mixed with feed) | lactic acid production promoting action (%) [3] [%] | GHb change (%) ([2]; 0.02% mixed with feed) | NF-κB activity (multiple) (NF-kB; 0.001 μM compound) | NF-κB activity (multiple) (NF-kB; 0.003 μM compound) | NF-κB activity (multiple) (NF-kB; 0.01 μM compound) | NF-κB activity (multiple) (NF-kB; 0.03 μM compound) | NF-κB activity (multiple) (NF-kB; 0.1 μM compound) | NF-κB activity (multiple) (NF-kB; 0.3 μM compound) | NF-κB activity (multiple) (NF-kB; 1 μM compound) | NF-κB activity (multiple) (NF-kB; 3 μM compound) | NF-κB activity (multiple) (NF-kB; 10 μM compound) |
| --- | --- | --- | --- | --- | --- | --- | --- | --- | --- | --- | --- | --- | --- |
| Cc1nnc(CCc2ccc(NC(=O)/C=C/c3cnccc3-c3ccc(F)cc3)cc2)o1 [Example 3, (2E)-3-[4-(4-fluorophenyl)pyridin-3-yl]-N-{4-[2-(5-methyl-1,3,4-oxadiazol-2-yl)ethyl]phenyl}prop-2-enamide] | 249 | −0.3 | 175.4 | – | – | – | – | – | – | – | – | – | – |
| O=C(/C=C/c1cncnc1-c1ccc(F)cc1)Nc1ccc(CCc2nnco2)cc1 [Example 4, (2E)-3-[4-(4-fluorophenyl)pyrimidin-5-yl]-N-{4-[2-(1,3,4-oxadiazol-2-yl)ethyl]phenyl}prop-2-enamide] | 249 | −0.7 | 222.9 | – | – | – | – | – | – | – | – | – | – |
| CS(=O)(=O)Cc1ccc(NC(=O)/C=C/c2cnccc2-c2ccc(F)cc2)cc1 [Example 7, (2E)-3-[4-(4-fluorophenyl)pyridin-3-yl]-N-{4-[(methylsulfonyl)methyl]phenyl}prop-2-enamide] | 197 | – | – | – | – | – | – | – | – | – | – | – | – |
| COP(=O)(Cc1ccc(NC(=O)/C=C/c2cnccc2-c2ccc(F)cc2)cc1)OC [Example 14, dimethyl [4-({(2E)-3-[4-(4-fluorophenyl)pyridin-3-yl]prop-2-enoyl}amino)benzyl]phosphonate] | 205 | – | – | – | – | – | – | – | – | – | – | – | – |
| O=C(/C=C/c1cnccc1-c1ccc(F)cc1)Nc1ccc(CN2CCOCC2)cc1 [Example 6, (2E)-3-[4-(4-fluorophenyl)pyridin-3-yl]-N-[4-(morpholin-4-ylmethyl)phenyl]prop-2-enamide] | 299 | – | 216.7 | −1.2 | – | – | – | – | – | – | – | – | – |
| COP(=O)(Cc1ccc(NC(=O)/C=C/c2cnccc2-c2ccccc2)cc1)OC [Example 12, dimethyl (4-{[(2E)-3-(4-phenylpyridin-3-yl)prop-2-enoyl]amino}benzyl)phosphonate] | 189 | – | – | – | – | – | – | – | – | – | – | – | – |
| CCOP(=O)(Cc1ccc(NC(=O)/C=C/c2cnccc2-c2ccccc2)cc1)OCC [Example 11, diethyl (4-{[(2E)-3-(4-phenylpyridin-3-yl)prop-2-enoyl]amino}benzyl)phosphonate] | 189 | – | – | – | 9.7 | 10.8 | 10.5 | 10.6 | 10.6 | 9.0 | 7.3 | 7.0 | 5.2 |
| O=C(/C=C/c1cnccc1-c1ccc(F)cc1)Nc1ccc(Cn2ccnc2)cc1 [Example 9, (2E)-3-[4-(4-fluorophenyl)pyridin-3-yl]-N-[4-(1H-imidazol-1-ylmethyl)phenyl]prop-2-enamide] | 208 | – | – | – | 11.8 | 13.0 | 12.1 | 13.1 | 13.0 | 10.2 | 8.4 | 7.6 | 6.9 |
| O=C(/C=C/c1cnccc1-c1ccc(F)cc1)Nc1ccc(Cn2cnc3ccccc32)cc1 [Example 8, (2E)-N-[4-(1H-benzimidazol-1-ylmethyl)phenyl]-3-[4-(4-fluorophenyl)pyridin-3-yl]prop-2-enamide] | 197 | – | – | – | 9.4 | 9.7 | 10.8 | 10.6 | 9.4 | 7.6 | 7.1 | 6.6 | 6.1 |
| COc1ccc(-c2ncncc2/C=C/C(=O)Nc2ccc(CCc3nnco3)cc2)cc1 [Example 5, (2E)-3-[4-(4-methoxyphenyl)pyrimidin-5-yl]-N-{4-[2-(1,3,4-oxadiazol-2-yl)ethyl]phenyl}prop-2-enamide] | 290 | −0.3 | 233.3 | – | – | – | – | – | – | – | – | – | – |
| CCOP(=O)(Cc1ccc(NC(=O)/C=C/c2cnccc2-c2ccc(F)cc2)cc1)OCC [Example 13, diethyl [4-({(2E)-3-[4-(4-fluorophenyl)pyridin-3-yl]prop-2-enoyl}amino)benzyl]phosphonate] | 184 | – | – | – | – | – | – | – | – | – | – | – | – |
| O=C(/C=C/c1cnccc1-c1ccc(F)cc1)Nc1ccc(OCc2nnco2)cc1 [Example 10, (2E)-3-[4-(4-fluorophenyl)pyridin-3-yl]-N-[4-(1,3,4-oxadiazol-2-ylmethoxy)phenyl]prop-2-enamide] | 164 | – | – | – | 10.0 | 10.2 | 10.5 | 10.5 | 9.6 | 7.8 | 7.5 | 6.9 | 6.2 |

— patent publication US8937055B2, “Heterocyclic ring compound having muscle cell or adipocyte differentiation regulating action” (Takeda Pharmaceutical Company Limited, priority 2010, dated 2015)
